Test results published in patent publication US20060074048A1, “Mixed esters of hyaluronic acid with retinoic and butyric acids” (priority 2002, published 2006).

How the values were obtained:
Assay type in all cases: cell-based, human
[1] = test system: promyelo/monocytic cell line U937; assay: Cell cycle perturbation by flow cytometry, U937; conditions: U937, 3 days; mixed ester 0.1 mg/ml, BA 0.2 mM, RA 10^−5 M
Protocol: The evaluation was performed by flow cytometry (panels a, b, c) after 6 days of continuous treatment with mixed ester at 0.1 or 1 mg/ml concentrations and was compared with the effect on cell growth determined by a colorimetric method (MTT), described by the curve -●-.
The effect on cell cycle and on cell proliferation has been assessed. The assessment has been performed by flow cytometry after 3 days of treatment with the mixed ester of the invention at 0.1 mg/ml concentration, or with butyric acid or retinoic acid at concentrations of 0.2 mM and 10^−5 M, respectively. Cell cycle perturbations induced by these compounds are related to the effect on cell proliferation (ordinate axis) exerted by identical concentrations of the drugs and expressed as percentage of the control (CTR) represented by cells cultured in medium alone. […] CTR: control. Panel a): (Go=45%; S=46%), panel b): (Go=44%; S=45%); panel c) (Go=43%; S=45%); panel d): (Go=72%; S=22%); panel e) (Go=41%; S=46%), panel f): (Go=94%; S=2%).
To evaluate cell cycle alterations, cells were re-suspended in a solution containing only propidium iodide, Rnase and Nonidet P40 and the fluorescence was measured using a FACScan flow cytometer.

[2] = test system: promyelo/monocytic cell line U937; assay: MTT cell proliferation, U937; conditions: for growth inhibition by free active principle: stated in the U937/HL-60 context
Protocol: MCF7, U937, HL-60 and HT29 cell lines were purchased from the American […] Culture Collection (Rockville, […].). MCF7 cells were grown in DMEM/F12 supplemented with 5% FBS, while U937 and HL-60 were grown in RPMI-1640 supplemented with 10% (v/v) foetal bovine serum.
Approximately 1000 cells (MCF7 and HT29) and 500 cells (U937 and HL-60) per well were used in 96-well plates and were treated as indicated in the examples. At the end of the experiment, the anti-proliferative effect was measured with 3-(4,5-dimethylthiazol-2-yl)-2,5-diphenyltetrazolium bromide (MTT). The blank value, corresponding to wells containing all the components but cells, was subtracted from the absorbance values obtained.

U937 cells = assay: Expression of membrane antigens by flow cytometry (FACS), U937; conditions: U937, 3 days; mixed ester 0.1 mg/ml, butyric acid 0.2 mM, retinoic acid 10^−5M
Protocol: Expression of CD44, CD11a, CD11b, CD18 antigens was measured with specific murine monoclonal antibodies and secondary anti-mouse antibodies conjugated to FITC. After immunofluorescence, cells were incubated in a solution containing propidium iodide (PI) (5 mg/ml), Rnase (10 kU/ml), and Nonidet P40 (0.005%). The fluorescence relative to PI was measured using a FACScan flow cytometer (Becton Dickinson) equipped with an argon laser at 488 nm excitation wavelength and a 610 nm filter. The fluorescence signal was collected in linear and logaritmic modes. Data were evaluated using the LYSIS II software.
To check whether the block of cell growth was accompanied by activation of differentiation, the selected experimental model consists of the U937 promyelo/monocytic cell line, in which the effect of mixed esters on a series of myelocyte/macrophage specific differentiation markers (CD11a, CD11b and CD18) has been studied. The resulting effect has been directly compared with that of the two active principles. […] The results have been compared with those obtained with butyric and retinoic acids at the same concentrations as in the mixed ester (respectively 0.2 mM and […]). Since the time of treatment was reduced to 3 days in these experiments, the effects on growth and cell cycle were also measured.
In table 2 are indicated the percentages of expression measured by FACS of some membrane antigens in U937 cells treated with the esters of the invention and with the two non-esterified active principles. For each treatment the control has been repeated and is then indicated by the respective superscript.
The evaluation was performed by flow cytometry after that the promyelo/monocytic U937 cell line was treated for 3 days with mixed ester at 0.1 mg/ml concentration, butyric acid at 0.2 mM concentration or retinoic acid at 10^−5M concentration. Human lymphocytes were used as negative control for the expression of the antigen under examination.

Structure (SMILES): CCCC(=O)O [butyric acid, Butyric Acid]
- cells blocked in G0/1 (Go) phase [1]: 44%
- cells in S phase [1]: 45%
- growth inhibition by free active principle ([2]; BA 2 mM): ~100%
- anti-proliferative effect and cell cycle block ([2]; U937, 3 days, BA 0.2 mM, RA 10^−5 M): totally ineffective
- CD11a expression (U937 cells): 76%
- CD11b expression (U937 cells): 17%
- CD18 expression (U937 cells): 82%
- CD44 expression (U937 cells): 91%

Structure (SMILES): CC1=C(/C=C/C(C)=C/C=C/C(C)=C/C(=O)O)C(C)(C)CCC1 [retinoic acid, Retinoic acid]
- cells blocked in G0/1 (Go) phase [1]: 94%
- cells in S phase [1]: 2%
- growth inhibition by free active principle ([2]; RA 10^−4 M): ~100%
- CD11a expression (U937 cells): 91%
- CD11b expression (U937 cells): 28%
- CD18 expression (U937 cells): 83%
- CD44 expression (U937 cells): 97%
